Holding throughout (assay type): cell-based
One experiment concerns the target T1, human P2X2/3 receptors (Homo sapiens, UniProt P56373+Q9UBL9).
T1 construct: expressed in transfected cells; host or cells: human astrocytoma 1321N1 (1312N1 [sic])
T1 sequence (P56373 1-397): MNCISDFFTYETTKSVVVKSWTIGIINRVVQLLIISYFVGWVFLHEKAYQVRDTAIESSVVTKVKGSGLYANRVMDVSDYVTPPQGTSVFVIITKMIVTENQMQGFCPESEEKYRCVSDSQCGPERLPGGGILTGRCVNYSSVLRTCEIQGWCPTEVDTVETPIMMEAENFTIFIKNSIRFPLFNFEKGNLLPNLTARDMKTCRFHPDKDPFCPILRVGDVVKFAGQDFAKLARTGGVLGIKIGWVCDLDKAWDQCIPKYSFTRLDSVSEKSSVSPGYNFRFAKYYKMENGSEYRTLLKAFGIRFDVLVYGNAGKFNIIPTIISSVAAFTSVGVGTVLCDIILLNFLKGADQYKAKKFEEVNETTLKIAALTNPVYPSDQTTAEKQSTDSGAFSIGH
T1 sequence (Q9UBL9 1-471): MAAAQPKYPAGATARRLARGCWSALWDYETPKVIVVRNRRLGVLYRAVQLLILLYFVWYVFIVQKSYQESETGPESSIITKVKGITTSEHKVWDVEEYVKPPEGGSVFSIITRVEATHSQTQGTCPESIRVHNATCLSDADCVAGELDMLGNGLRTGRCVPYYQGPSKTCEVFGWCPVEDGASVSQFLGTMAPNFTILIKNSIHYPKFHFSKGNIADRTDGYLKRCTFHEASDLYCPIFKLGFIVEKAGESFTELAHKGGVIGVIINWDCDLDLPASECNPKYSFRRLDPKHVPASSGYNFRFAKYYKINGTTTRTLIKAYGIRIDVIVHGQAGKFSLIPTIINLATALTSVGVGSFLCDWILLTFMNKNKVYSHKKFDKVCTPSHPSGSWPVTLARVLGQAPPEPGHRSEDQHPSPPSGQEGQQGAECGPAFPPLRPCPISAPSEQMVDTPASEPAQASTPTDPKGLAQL
Description: Intracellular calcium measurement, antagonist activity at human P2X2/3 receptors (hP2X23 1321N1), Fluo8. The settings on record: for IC50: column 4); 1321N1 cells, human P2X2/3, Fluo8, agonist ATP at EC50; read-out: 4) hP2X2/3 IC50 [nM] (1321N1); for hP2X23/hP2X3* Selectivity (1321N1): ratio of column 4) hP2X2/3 to column 3) hP2X3, 1321N1. An outline of the steps:
(§1)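 Inhibition of ATP-triggered Ca2+ transients is measured in 1321N1 cells expressing P2X3 homotrimers or P2X2/3 heterotrimers.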
For orientation: A change in cytosolic calcium serves as a functional read-out for many receptors and channels.

In experiment [1] the target is T2, human P2X3 receptor (Homo sapiens, UniProt P56373).
T2 sequence (P56373 1-397): T1 sequence (P56373 1-397)
Put plainly: Intracellular calcium measurement, antagonist activity at human P2X3 receptors (hP2X3 1321N1), Fluo8. The following applies: column 3); 1321N1 cells, human P2X3, Fluo8, agonist ATP at EC50. Further details: expressed in transfected cells; host or cells: human astrocytoma 1321N1 (1312N1 [sic]). An outline of the steps:
as §1

For experiment [2], the target named is T2, human P2X3 receptor. Put plainly: Intracellular calcium measurement to assess antagonist activity at human P2X3 receptors (hP2X3 CHO), photina luminescence. Further details: expressed in transfected cells; host or cells: Chinese hamster ovary (CHO) cells. The settings on record: column 2), CHO cells, agonist α,β-methylene-ATP at EC50. An outline of the steps:
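CHO cells stably expressing human P2X3 and mitochondrial photina, plated the day before at 30 °C, then loaded 3 h at 37 °C in 2 mM Ca-tyrode buffer with 5 μg/ml coelenterazine. Agonist-evoked calcium luminescence read immediately; inhibition seen as signal decrease.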

The structures appear in SMILES notation. Where only a bound is given, the exact number is not on record here.

Regarding `CC(C)N1Cc2c(n(CC(=O)Nc3ccc(F)cn3)c3cc(C4=CCN(C(=O)OC(C)(C)C)C4)nn3c2=O)C1=O` [Example 142, tert-butyl 3-[4-{2-[(5-fluoropyridin-2-yl)amino]-2-oxoethyl}-5,8-dioxo-6-(propan-2-yl)-5,6,7,8-tetrahydro-4H-pyrazolo[1,5-a]pyrrolo[3,4-d]pyrimidin-2-yl]-2,5-dihydro-1H-pyrrole-1-carboxylate], the IC50 on human P2X2/3 receptors is 1140 nM; at human P2X3 receptor [1] it was 7 nM; at human P2X3 receptor [2], 11 nM. The “hP2X23/hP2X3* Selectivity (1321N1)” value at human P2X2/3 receptors came to 165.
For `CC(C)N1Cc2c(n(CC(=O)Nc3ccc(F)cn3)c3cc(C4=CCN(C(=O)OC(C)(C)C)CC4)nn3c2=O)C1=O` [Example 143, tert-butyl 4-[4-{2-[(5-fluoropyridin-2-yl)amino]-2-oxoethyl}-5,8-dioxo-6-(propan-2-yl)-5,6,7,8-tetrahydro-4H-pyrazolo[1,5-a]pyrrolo[3,4-d]pyrimidin-2-yl]-3,6-dihydropyridine-1(2H)-carboxylate], in that order: 6600 nM, 34 nM, 20 nM and 197.
Regarding `CC(C)N1Cc2c(n(CC(=O)Nc3ccc(F)cn3)c3cc(C#N)nn3c2=O)C1=O` [Example 146, 2-[2-cyano-5,8-dioxo-6-(propan-2-yl)-5,6,7,8-tetrahydro-4H-pyrazolo[1,5-a]pyrrolo[3,4-d]pyrimidin-4-yl]-N-(5-fluoropyridin-2-yl)acetamide], the IC50 came to 6950 nM on human P2X2/3 receptors, 124 nM at human P2X3 receptor [1] and 97 nM at human P2X3 receptor [2]. Also, the “hP2X23/hP2X3* Selectivity (1321N1)” value on human P2X2/3 receptors turned out to be 56.
Take `CC(C)N1Cc2c(n(CC(=O)Nc3ccc(F)cn3)c3cc(-c4ccncc4)nn3c2=O)C1=O` [Example 149, 2-[5,8-dioxo-6-(propan-2-yl)-2-(pyridin-4-yl)-5,6,7,8-tetrahydro-4H-pyrazolo[1,5-a]pyrrolo[3,4-d]pyrimidin-4-yl]-N-(5-fluoropyridin-2-yl)acetamide]: the IC50 at human P2X2/3 receptors was 2110 nM; on human P2X3 receptor [1] it was 13 nM; on human P2X3 receptor [2], 11 nM. Further, the “hP2X23/hP2X3* Selectivity (1321N1)” value at human P2X2/3 receptors amounted to 169.
`CC(C)N1Cc2c(n(CC(=O)Nc3ccc(F)cn3)c3cc(-c4ccccc4)nn3c2=O)C1=O` [Example 150, 2-[5,8-dioxo-2-phenyl-6-(propan-2-yl)-5,6,7,8-tetrahydro-4H-pyrazolo[1,5-a]pyrrolo[3,4-d]pyrimidin-4-yl]-N-(5-fluoropyridin-2-yl)acetamide]: the figures for the IC50 on human P2X2/3 receptors, at human P2X3 receptor [1] and at human P2X3 receptor [2] were 2250 nM, 16 nM and 12 nM, respectively. For the same compound, on human P2X2/3 receptors, the “hP2X23/hP2X3* Selectivity (1321N1)” value is given as 139.
For `COC[C@H](C)N1Cc2c(n(CC(=O)Nc3ccc(F)cn3)c3cc(-c4ccc(C)nc4)nn3c2=O)C1=O` [Example 151, N-(5-fluoropyridin-2-yl)-2-{6-[(2S)-1-methoxypropan-2-yl]-2-(6-methylpyridin-3-yl)-5,8-dioxo-5,6,7,8-tetrahydro-4H-pyrazolo[1,5-a]pyrrolo[3,4-d]pyrimidin-4-yl}acetamide], in that order: 580 nM, 5 nM, 6 nM and 106.
In the same order, the values of `COC[C@H](C)N1Cc2c(n(CC(=O)Nc3ccc(F)cn3)c3cc(-c4ccncc4C)nn3c2=O)C1=O` [Example 152, N-(5-fluoropyridin-2-yl)-2-{6-[(2S)-1-methoxypropan-2-yl]-2-(3-methylpyridin-4-yl)-5,8-dioxo-5,6,7,8-tetrahydro-4H-pyrazolo[1,5-a]pyrrolo[3,4-d]pyrimidin-4-yl}acetamide] are 1460 nM, 4 nM, 9 nM and 328.
For `COC[C@H](C)N1Cc2c(n(CC(=O)Nc3ccc(F)cn3)c3cc(-c4ccnc(C)c4)nn3c2=O)C1=O` [Example 153], in that order: 2350 nM, 6 nM, 10 nM and 408.
Take `Cc1ccc(-c2cc3n(CC(=O)Nc4ccc(F)cn4)c4c(c(=O)n3n2)CN(C(C)C)C4=O)cn1` [Example 154]: the IC50 on human P2X2/3 receptors stood at 765 nM; on human P2X3 receptor [1] it was 8 nM; at human P2X3 receptor [2], 21 nM. Besides, at human P2X2/3 receptors, the “hP2X23/hP2X3* Selectivity (1321N1)” value is 96.
For `Cc1cc(C)c(-c2cc3n(CC(=O)Nc4ccc(F)cn4)c4c(c(=O)n3n2)CN(C(C)C)C4=O)cn1` [Example 156], in that order: 295 nM, 4 nM, 12 nM and 78.
As for `Cc1ccc(-c2cc3n(CC(=O)Nc4ccc(F)cn4)c4c(c(=O)n3n2)CN(C(C)C)C4=O)c(C)n1` [Example 157], the figures for the IC50 on human P2X2/3 receptors, at human P2X3 receptor [1] and on human P2X3 receptor [2] were greater than 32000 nM, 54 nM and 26 nM, respectively. Also, the “hP2X23/hP2X3* Selectivity (1321N1)” value on human P2X2/3 receptors is greater than 593.
In the same order, the values of `COC[C@H](C)N1Cc2c(n(CC(=O)Nc3ccc(F)cn3)c3cc(-c4cc(C)ncc4C)nn3c2=O)C1=O` [Example 158] are 1400 nM, 3 nM, 10 nM and 424.
For `Cc1cc(-c2cc3n(CC(=O)Nc4ccc(F)cn4)c4c(c(=O)n3n2)CN(C(C)C)C4=O)c(C)cn1` [Example 159], in that order: 1800 nM, 3 nM, 13 nM and 581.
For `Cc1ccc(-c2cc3n(CC(=O)Nc4ccc(F)cn4)c4c(c(=O)n3n2)CN([C@@H]2CCOC2)C4=O)nc1` [Example 160, N-(5-fluoropyridin-2-yl)-2-[2-(5-methylpyridin-2-yl)-5,8-dioxo-6-[(3R)-oxolan-3-yl]-5,6,7,8-tetrahydro-4H-pyrazolo[1,5-a]pyrrolo[3,4-d]pyrimidin-4-yl]acetamide], in that order: 2200 nM, 6 nM, 16 nM and 367.
Turning to `CC(C)N1Cc2c(n(CC(=O)Nc3ccc(F)cn3)c3cc(NC4CC4)nn3c2=O)C1=O` [Example 167, 2-[2-(cyclopropylamino)-5,8-dioxo-6-(propan-2-yl)-5,6,7,8-tetrahydro-4H-pyrazolo[1,5-a]pyrrolo[3,4-d]pyrimidin-4-yl]-N-(5-fluoropyridin-2-yl)acetamide], the IC50 on human P2X2/3 receptors worked out at 2300 nM; on human P2X3 receptor [1], 18 nM; on human P2X3 receptor [2], 36 nM. The “hP2X23/hP2X3* Selectivity (1321N1)” value at human P2X2/3 receptors is listed as 128.
In the same order, the values of `CC(C)N1Cc2c(n(CC(=O)Nc3ccc(F)cn3)c3cc(NC4CCCC4)nn3c2=O)C1=O` [Example 168] are 2350 nM, 9 nM, 17 nM and 250.
In the case of `COCCNc1cc2n(CC(=O)Nc3ccc(F)cn3)c3c(c(=O)n2n1)CN(C(C)C)C3=O` [Example 169], the IC50 is greater than 20700 nM at human P2X2/3 receptors, 120 nM on human P2X3 receptor [1] and 108 nM on human P2X3 receptor [2]. The “hP2X23/hP2X3* Selectivity (1321N1)” value at human P2X2/3 receptors is greater than 173.
As to `CC(C)N1Cc2c(n(CC(=O)Nc3ccc(F)cn3)c3cc(NCC(F)F)nn3c2=O)C1=O` [Example 170], the IC50 at human P2X2/3 receptors was greater than 20400 nM; on human P2X3 receptor [1] it was 120 nM; at human P2X3 receptor [2] it was 59 nM. Further, the “hP2X23/hP2X3* Selectivity (1321N1)” value on human P2X2/3 receptors is greater than 170.
Regarding `CC(C)Nc1cc2n(CC(=O)Nc3ccc(F)cn3)c3c(c(=O)n2n1)CN(C(C)C)C3=O` [Example 171], the IC50 at human P2X2/3 receptors worked out at 4900 nM; on human P2X3 receptor [1] it was 33 nM; on human P2X3 receptor [2], 27 nM. Also, the “hP2X23/hP2X3* Selectivity (1321N1)” value at human P2X2/3 receptors stood at 148.
In the same order, the values of `CC(C)N1Cc2c(n(CC(=O)Nc3ccc(F)cn3)c3cc(N(C)C)nn3c2=O)C1=O` [Example 172] are 6350 nM, 42 nM, 35 nM and 150.
